The target of the experiment is Leucine-rich repeat serine/threonine-protein kinase 2 (Homo sapiens, UniProt Q5S007, G2019S). As to the kind of experiment: Biochemical Assay: Materials: LRRK2 G2019S enzyme Substrate (LRRKtide) ATP TR-FRET dilution buffer pLRRKtide antibody 384-well assay plate DMSOEnzyme Reaction Conditions 50 mM Tris pH 7.5, 10 mM MgCl2, 1 mM EGTA, 0.01% Brij-35, 2 mM DTT 5 nM LRRK2 134 μM ATP 60 minute reaction time 23° C. reaction temperature 10 μL total reaction volumeDetection Reaction Conditions 1× TR-FRET dilution buffer 10 mM EDTA 2 nM antibody 23° C. reaction temperature 10 μL total reaction volumeCompounds were prepared by initially diluting to 1 mM with DMSO. 35 μL of reference compound solution, 35 μL of test compound solution, and 35 μL HPE were successively added to the source plate (384-well assay plate, Labcyte). The plates were centrifuged at 2500 rpm for 1 minute and sealed in foil. POD was used to perform a 3.162 fold serial dilution and 100 nL of reference compound solution, test compound solution, HPE and ZPE were transferred to assay plates. The assay plate was centrifuged at 2500 rpm for 1 minute, and sealed with foil.To perform the enzyme reaction, 5 μL of LRRKtide substrate and kinase mixture in assay buffer was added to all wells of the assay plate. The plate was centrifuged to concentrate the mixture at the bottom of the wells. The assay plate was incubated at 23° C. for 20 minutes. […].
Sequence of Leucine-rich repeat serine/threonine-protein kinase 2 (Q5S007 whole entry G2019S): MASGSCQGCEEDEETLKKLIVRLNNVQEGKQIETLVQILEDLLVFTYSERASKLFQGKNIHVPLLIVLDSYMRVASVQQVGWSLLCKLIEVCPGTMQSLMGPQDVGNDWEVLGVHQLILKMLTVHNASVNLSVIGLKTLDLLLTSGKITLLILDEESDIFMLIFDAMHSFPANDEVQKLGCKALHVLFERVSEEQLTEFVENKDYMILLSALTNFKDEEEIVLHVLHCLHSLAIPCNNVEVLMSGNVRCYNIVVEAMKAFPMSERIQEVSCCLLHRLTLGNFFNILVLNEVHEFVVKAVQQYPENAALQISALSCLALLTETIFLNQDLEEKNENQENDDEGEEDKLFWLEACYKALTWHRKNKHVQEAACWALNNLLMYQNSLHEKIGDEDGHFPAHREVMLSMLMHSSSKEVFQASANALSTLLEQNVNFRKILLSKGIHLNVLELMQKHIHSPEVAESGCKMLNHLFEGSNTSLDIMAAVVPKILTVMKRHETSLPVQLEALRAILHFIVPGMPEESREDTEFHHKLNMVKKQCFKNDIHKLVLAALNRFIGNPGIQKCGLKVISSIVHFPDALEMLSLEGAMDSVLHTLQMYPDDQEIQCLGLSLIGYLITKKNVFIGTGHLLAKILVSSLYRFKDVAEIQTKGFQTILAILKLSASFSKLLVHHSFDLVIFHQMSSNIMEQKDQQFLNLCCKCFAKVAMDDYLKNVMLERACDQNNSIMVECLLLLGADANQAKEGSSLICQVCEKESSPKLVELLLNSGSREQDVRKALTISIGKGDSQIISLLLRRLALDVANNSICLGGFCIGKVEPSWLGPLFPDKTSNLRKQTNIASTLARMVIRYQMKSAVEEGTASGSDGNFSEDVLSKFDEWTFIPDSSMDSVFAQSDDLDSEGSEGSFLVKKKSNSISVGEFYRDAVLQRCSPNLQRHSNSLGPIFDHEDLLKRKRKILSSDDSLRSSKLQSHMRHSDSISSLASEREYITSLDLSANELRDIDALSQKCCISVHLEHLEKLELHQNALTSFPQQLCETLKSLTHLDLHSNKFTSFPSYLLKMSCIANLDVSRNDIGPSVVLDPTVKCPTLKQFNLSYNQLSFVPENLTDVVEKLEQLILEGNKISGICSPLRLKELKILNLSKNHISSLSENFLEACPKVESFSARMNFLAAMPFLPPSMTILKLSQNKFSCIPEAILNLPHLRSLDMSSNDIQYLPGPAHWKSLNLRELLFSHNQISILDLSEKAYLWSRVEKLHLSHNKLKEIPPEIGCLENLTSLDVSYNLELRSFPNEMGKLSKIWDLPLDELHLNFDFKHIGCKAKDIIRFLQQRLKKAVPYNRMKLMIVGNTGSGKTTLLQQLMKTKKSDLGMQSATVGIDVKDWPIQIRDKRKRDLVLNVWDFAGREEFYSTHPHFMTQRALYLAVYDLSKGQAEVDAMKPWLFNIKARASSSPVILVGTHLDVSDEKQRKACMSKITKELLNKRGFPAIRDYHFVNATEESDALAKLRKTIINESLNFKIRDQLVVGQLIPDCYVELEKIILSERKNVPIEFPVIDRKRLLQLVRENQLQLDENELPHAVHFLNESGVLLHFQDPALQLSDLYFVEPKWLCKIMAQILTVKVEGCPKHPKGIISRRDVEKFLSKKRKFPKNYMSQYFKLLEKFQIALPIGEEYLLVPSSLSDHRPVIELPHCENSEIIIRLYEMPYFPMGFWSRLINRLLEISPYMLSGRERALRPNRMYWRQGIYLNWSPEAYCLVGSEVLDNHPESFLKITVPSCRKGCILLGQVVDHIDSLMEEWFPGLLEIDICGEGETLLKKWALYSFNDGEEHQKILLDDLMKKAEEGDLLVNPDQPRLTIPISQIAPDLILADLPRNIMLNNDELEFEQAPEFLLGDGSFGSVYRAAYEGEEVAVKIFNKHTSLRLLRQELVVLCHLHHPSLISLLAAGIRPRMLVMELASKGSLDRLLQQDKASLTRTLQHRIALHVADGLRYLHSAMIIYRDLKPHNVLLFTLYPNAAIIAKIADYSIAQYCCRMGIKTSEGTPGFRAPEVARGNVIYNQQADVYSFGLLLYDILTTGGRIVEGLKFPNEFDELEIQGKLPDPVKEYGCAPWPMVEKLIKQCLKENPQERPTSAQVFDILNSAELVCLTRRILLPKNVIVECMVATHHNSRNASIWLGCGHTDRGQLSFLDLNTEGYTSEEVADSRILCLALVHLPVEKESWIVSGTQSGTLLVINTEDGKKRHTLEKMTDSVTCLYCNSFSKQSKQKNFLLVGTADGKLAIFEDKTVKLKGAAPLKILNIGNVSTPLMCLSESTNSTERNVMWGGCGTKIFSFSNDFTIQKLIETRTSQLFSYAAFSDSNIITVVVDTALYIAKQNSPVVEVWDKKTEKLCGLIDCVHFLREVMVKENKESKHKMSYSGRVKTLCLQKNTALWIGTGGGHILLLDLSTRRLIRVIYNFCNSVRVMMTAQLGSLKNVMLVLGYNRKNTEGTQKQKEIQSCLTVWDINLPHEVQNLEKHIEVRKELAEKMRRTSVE

Usually IC50 stands for the concentration needed to halve the response being measured. Regarding `COc1nc(Nc2cn(C3C[C@@H]3C#N)nc2C2CC2)ncc1Br` (single isomer, unassigned), the 50% inhibitory concentration (IC50) was < 30 nM.

Turning to `COc1nc(Nc2cn(C(C)(C)C#N)nc2C)ncc1Br`, the half-maximal inhibitory concentration (IC50) is < 30 nM.

For the origin of these results see ChEMBL document CHEMBL5726904, “Compounds, compositions, and methods” (2018).
